PubChem BioAssay (NCI)
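Dose response: 5 concentrations. Exposure: 48 h. Format: 96-well plates. Endpoint: linear interpolation; highest concentration if not reached. GI50 marks 50% less growth. The concentration for full growth arrest is given as TGI.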

Columns and labels:
Assay in all cases: NCI tumour cell line growth inhibition, 48 h
HCT-116 colon = system: HCT-116 colon
SN12C renal = system: SN12C renal
SNB-19 CNS = system: SNB-19 CNS
SF-295 CNS = system: SF-295 CNS
A549 NSCLC = system: A549 NSCLC
OVCAR-5 ovarian = system: OVCAR-5 ovarian
HOP-92 NSCLC = system: HOP-92 NSCLC
MALME-3M melanoma = system: MALME-3M melanoma
SR leukemia = system: SR leukemia
NCI-H460 lung = system: NCI-H460 lung

SMILES	TGI (HCT-116 colon)	TGI (SN12C renal)	TGI (SNB-19 CNS)	TGI (SF-295 CNS)	TGI (A549 NSCLC)	TGI (OVCAR-5 ovarian)	TGI (HOP-92 NSCLC)	TGI (MALME-3M melanoma)	TGI (SR leukemia)	TGI (NCI-H460 lung)	GI50 (HCT-116 colon)	GI50 (SN12C renal)	GI50 (SNB-19 CNS)	GI50 (SF-295 CNS)	GI50 (A549 NSCLC)	GI50 (NCI-H460 lung)	GI50 (OVCAR-5 ovarian)	GI50 (HOP-92 NSCLC)	GI50 (MALME-3M melanoma)
CCO/C=N\C1=C(C#N)SC2=N/C(=C\c3ccco3)C(=O)N21	> 100 µM	> 100 µM	> 100 µM	> 100 µM	> 100 µM	> 100 µM	> 100 µM	> 100 µM	> 100 µM										
c1ccc2sc(C3(N4CCCCCC4)CCCCC3)cc2c1	52.1 µM	43.7 µM	44.6 µM	59.1 µM	> 100 µM	37.4 µM	80 µM			45.1 µM									
C[C@@H](NC(=O)Nc1cccc(C(=O)Nc2cc(C(C)(C)C)ccc2C(=O)O)n1)c1ccccc1	44.1 µM	> 100 µM	> 100 µM	76.2 µM	> 100 µM	> 100 µM		> 100 µM	> 100 µM	> 100 µM									
CC12CCC(C(=Nc3ccc([N+](=O)[O-])cc3)C1=O)C2(C)C (stereo unspecified)	> 100 µM		> 100 µM	> 100 µM	> 100 µM	> 100 µM		30 µM	59.3 µM	> 100 µM									
CC1CC(=O)C(CC(=O)O)[C@H]1C(C(=O)C(=O)Nc1cc(Cl)ccc1Cl)[N+](=O)[O-] (stereo partly specified)		> 100 µM	> 100 µM	> 100 µM	> 100 µM	> 100 µM	> 100 µM		> 100 µM	> 100 µM									
C/C(=C/C(=O)N(C)c1ccccc1Cl)O[Si](C(C)C)(C(C)C)C(C)C	34.2 µM	32.4 µM	64.5 µM	74.8 µM	> 100 µM	34.8 µM	31.1 µM	51.5 µM		56.2 µM									
COc1ccc(C2OC2C(=O)C23CC4CC(CC(C4)C2)C3)cc1 (stereo unspecified)	> 100 µM	> 100 µM	> 100 µM	> 100 µM	> 100 µM	> 100 µM	> 100 µM	> 100 µM		> 100 µM									
COC(=O)[C@@H](N1C(=O)c2ccccc2C1=O)C1(C)CC(Cl)=NO1 (stereo partly specified)	> 100 µM	> 100 µM	56.2 µM	74.3 µM	> 100 µM	> 100 µM		> 100 µM		> 100 µM									
COC(=O)c1c(O)ccc2c1c1c(n2CCc2ccccc2)C(=O)c2ccccc2C1	35.8 µM	35.4 µM	84.1 µM		> 100 µM		30.9 µM	> 100 µM	> 100 µM	48.3 µM									
N#Cc1nc(CCC(C(=O)O)N2C(=O)c3ccccc3C2=O)oc1N (stereo unspecified)		> 100 µM	> 100 µM	> 100 µM	> 100 µM	> 100 µM	> 100 µM	> 100 µM	> 100 µM	> 100 µM									
COC(=O)C#CC1(O)C=CC(=O)C=C1			17.9 µM	> 41.8 µM	> 48.1 µM	10.4 µM	2.29 µM	4.48 µM	15.2 µM	13.9 µM									
O=C(O)OC12CCCCCC1C(=O)C1CCCCC12 (stereo unspecified)	> 100 µM	> 100 µM	> 100 µM	> 100 µM	> 100 µM			> 100 µM	> 100 µM	> 100 µM									
O[C@@H]1CCCCN1Cc1cc2cc3c(cc2c2cc(OCc4ccccc4)ccc12)OCO3	2.21 µM	2.77 µM	3.59 µM	3.03 µM	3.31 µM	3.93 µM	2.93 µM	3.37 µM		2.76 µM	1040 nM	1420 nM	1630 nM	1590 nM	1620 nM	1370 nM	1730 nM	1350 nM	1660 nM
CC(=O)OC(C(=O)NNC(=O)OC(C)(C)C)c1ccccc1 (stereo unspecified)		> 100 µM	> 100 µM	> 100 µM	> 100 µM	> 100 µM	> 100 µM	> 100 µM	> 100 µM	> 100 µM									
C(#C[C@@]12CCC[C@@H]1NCO2)c1ccc2c(c1)OCO2			> 100 µM	> 100 µM	> 100 µM	> 100 µM	> 100 µM	> 100 µM	> 100 µM	> 100 µM									
CC(=O)Nc1ccc2c3c(cc(O)c2c1)N(C(=O)CCCCCCC(=O)Nc1ccc2c4c(cc(O)c2c1)N(C(=O)OC(C)(C)C)CC4CCl)CC3CCl (stereo unspecified)	11.9 µM	2.59 µM		0.957 µM	> 32.3 µM	0.663 µM	4.11 µM		0.0243 µM	0.245 µM									
N#CC(C#N)=CNC(=S)Nc1ccc(S(=O)(=O)Nc2nccs2)cc1	> 100 µM	> 100 µM	> 100 µM	> 100 µM	> 100 µM	> 100 µM	> 100 µM			> 100 µM									
CC(=O)OCCn1c(Cc2ccc(Cl)cc2)nn(C(C)=O)c1=O	> 100 µM	> 100 µM	> 100 µM	> 100 µM	> 100 µM	> 100 µM	> 100 µM	> 100 µM		> 100 µM									
COc1cc(N(CCC#N)CCC#N)ccc1/C(N=Nc1cccc([N+](=O)[O-])c1)=N\NC(=O)c1ccc(C)cc1	> 100 µM	> 100 µM	> 100 µM	> 100 µM	> 100 µM	> 100 µM	> 100 µM	> 100 µM		70.5 µM									
CN(C)CCC(C#N)(c1ccccc1)c1ccccc1	> 100 µM	> 100 µM	> 100 µM	> 100 µM	> 100 µM	> 100 µM	66.6 µM	> 100 µM		> 100 µM									
CC(=O)OC1=C(c2ccccc2)S(=O)(=O)c2ccccc21	> 100 µM		> 100 µM	> 100 µM	> 100 µM	> 100 µM	> 100 µM	> 100 µM	> 100 µM	> 100 µM									
CCc1c(N=[N+]=[N-])c2ccccc2oc1=O	> 100 µM	> 100 µM		> 100 µM	> 100 µM		> 100 µM	> 100 µM	> 100 µM	> 100 µM									
